Experimental data taken from paper PMC8389922, “First-in-Class Cyclic Temporin L Analogue: Design, Synthesis, and Antimicrobial Assessment” (Journal of Medicinal Chemistry, 2021).
In brackets after ≈: the same amount, converted by molar mass. Bridge positions count the residues as written; N and C are the ends. Square brackets hold non-standard residues; d marks the D form. Peptide text beside a SMILES is read from it.

Assays:
E. coli ATCC 25922 = assay type: cell-based, Escherichia coli
Experimental: (§1) The antimicrobial activity of peptides 9–26 was assessed against a range of reference bacterial strains such as S. aureus ATCC 25923, Staphylococcus epidermidis ATCC 12228, Bacillus megaterium Bm11, E. coli ATCC 25922, P. aeruginosa ATCC 27853, and A. baumannii ATCC 19606 by the broth microdilution assay to determine the minimal growth inhibitory concentration (MIC, Table 1).[59] First, we evaluated the effects produced by the lactam bridge between Lys and Glu residues placed at different positions along the peptide sequence of reference 9. […] When the i,i+7 cyclization strategy was applied (20–23), a dramatic decrease of bacterial inhibition activity was observed. Specifically, the peptides 20, 22, and 23 only affected the microbial growth of the Gram-positive B. megaterium Bm11, at 12.5 μM. […] Peptide 25, which differs from 9 by the presence of an olefin bridge rather than lactam one, dramatically lost the activity (MIC > 100 μM) vs both Gram-positive and Gram-negative strains.
(§2) The determination of MICs was conducted as previously reported.[61] Aliquots of 50 μL of bacterial culture appropriately diluted were added to each well of a 96-well plate to reach a final cell density of 1 × 10^6 CFU/mL and a final peptide concentration ranging from 100 to 0.78 μM (final volume 100 μL).

[1] = system: S. epidermidis ATCC 12228; assay type: cell-based, Staphylococcus epidermidis
Experimental: as §1, §2

B. megaterium Bm11 = assay type: cell-based, Bacillus megaterium
Experimental: as §1, §2

[2] = system: HaCaT cells (human immortalized keratinocytes); assay: Cytotoxicity, MTT assay; assay type: cell-based; conditions: vs untreated control
Experimental: In particular, the cytotoxicity was evaluated by the 3-(4,5-dimethylthiazol-2-yl)-2,5-diphenyltetrazolium bromide (MTT) assay and is expressed as the percentage of viability of peptide-treated cells compared to that of untreated control cells. As expected, after 2 and 24 h treatments, the cell viability decreased in a concentration-dependent manner for all peptides (Figure 2).
Figure 2 Viability of peptide-treated HaCaT cells evaluated by MTT assay at 2 h (a) and 24 h (b). All data are expressed as a percentage with respect to the untreated control cells and are the mean of three independent experiments ± standard error of the mean (SEM).
The human immortalized keratinocytes HaCaT cells (AddexBio, San Diego, CA) were cultured in Dulbecco’s modified Eagle’s medium containing 4 mM glutamine (DMEMg), supplemented with 10% heat-inactivated fetal bovine serum (FBS) and 0.1 mg/mL of penicillin and streptomycin, at 37 °C and 5% CO2, in 25 or 75 cm^2 flasks.
The quantification of cell viability was performed by the in vitro MTT [3-(4,5-dimethylthiazol-2-yl)-2,5-diphenyltetrazolium bromide] assay, as previously reported,[77] measuring the conversion of the soluble yellow dye MTT to insoluble purple formazan by mitochondrial dehydrogenases. More precisely, 4 × 10^4 HaCaT cells, suspended in DMEMg supplemented with 2% FBS without antibiotics, were plated in each well of the 96-well plate. After overnight incubation at 37 °C and 5% CO2, the medium of each well was replaced by DMEMg containing the peptide at different concentrations, as indicated. Controls were HaCaT cells not treated with the peptide. After 2 and 24 h of incubation at 37 °C and 5% CO2, the medium was discarded; 0.5 mg/mL of MTT in Hank’s buffer was added to each well, and the plate was incubated for further 4 h. Acidified isopropanol was then added to dissolve formazan crystals, and the absorbance of each well at 570 nm was measured using a microplate reader (Infinite M200; Tecan, Salzburg, Austria). The purple color intensity is directly proportional to the number of viable cells, which was expressed as a percentage compared to that of untreated control cells (100%).

[3] = CD spectroscopy, secondary structure content (DichroWeb); assay type: physicochemical
Experimental: The secondary structures of the linear peptide 9 and its stapled analogues 12, 17, and 24–26 were explored by circular dichroism (CD). CD spectroscopy studies were performed in water, and SDS or DPC micelles (20 mM) were used as mimics of the bacterial or mammalian membranes, respectively.[60]
The secondary structure content was predicted based on the CD spectra from 190 to 260 nm using the online server for protein secondary structure analyses, DichroWeb.[61] […] The hydrocarbon-bridged peptide 25 was slightly helical and structured in water, with weak ellipticity at 220 nm. Peptide 25 contains ∼13% regular helix and ∼10% distorted helix, according to the DichroWeb prediction.
All spectra were measured in the 260–190 nm spectral range, 1 nm bandwidth, 4 accumulations, and 100 nm/min scanning speed.[60] Each peptide was dissolved in water to prepare a 1 mM peptide stock solution. The CD spectra were performed in water, in SDS (20 mM) and in DPC (20 mM) using a peptide concentration of 50 μM. The secondary structure content of the peptides was predicted using the online server for protein secondary structure analyses DichroWeb.[61] Input and output units and the wavelength step were θ (mdeg) and 1.0 nm, respectively. The algorithm used was CONTIN-LL,[83] and reference database was set-7. When we have NRMSD > 0.100, we used the CDSSTR method.[83]

circular dichroism = conditions: water; pH ns; 25 °C; 50 uM
A. baumannii ATCC 19606 = assay type: cell-based, Acinetobacter baumannii
Experimental: as §1, §2

S. aureus ATCC 25923 = assay type: cell-based, Staphylococcus aureus
Experimental: as §1, §2

P. aeruginosa ATCC 27853 = assay type: cell-based, Pseudomonas aeruginosa
Experimental: as §1, §2

[4] = CD in DPC micelles (20 mM), peptide 50 μM, 25 °C, DichroWeb
[5] = CD in SDS micelles (20 mM), peptide 50 μM, 25 °C, DichroWeb
[6] = CD in water, peptide 50 μM, 25 °C, DichroWeb
[7] = CD in water, peptide 50 μM, 25 °C, DichroWeb (CONTIN-LL, set-7; CDSSTR if NRMSD > 0.100)

Structure (SMILES)	MIC E. coli ATCC 25922 (E. coli ATCC 25922)	MIC S. epidermidis ATCC 12228 [1]	MIC B. megaterium Bm11 (B. megaterium Bm11)	helix-1 (regular α-helix) [3, 4]	helix-2 (distorted α-helix) [3, 4]	random [3, 4]	β-strand-1 (regular β-strand) [3, 4]	β-strand-2 (distorted β-strand) [3, 4]	β-turn [3, 4]	helix-1 (regular α-helix) [3, 5]	helix-2 (distorted α-helix) [3, 5]	random [3, 5]	β-strand-1 (regular β-strand) [3, 5]	β-strand-2 (distorted β-strand) [3, 5]	β-turn [3, 5]	helix-2 (distorted α-helix) [3, 6]	random [3, 6]	β-strand-1 (regular β-strand) [3, 6]	β-strand-2 (distorted β-strand) [3, 6]	β-turn [3, 6]	also measured
CC[C@H](C)[C@H](NC(=O)[C@H](CCCNC(=N)N)NC(=O)[C@@H]1CCCCNC(=O)CC[C@H](NC(=O)[C@H](Cc2ccccc2)NC(=O)[C@H](Cc2c[nH]c3ccccc23)NC(=O)[C@@H]2CCCN2C(=O)[C@@H](NC(=O)[C@@H](N)Cc2ccccc2)C(C)C)C(=O)N[C@@H](CCCCN)C(=O)N[C@@H](Cc2ccccc2)C(=O)N[C@H](CC(C)C)C(=O)N1)C(=O)N[C@@H](CC(C)C)C(N)=O [compound 24] (H-FVPWFEKF[dL]KRIL-NH2; lactam 6-10)	25 µM (≈ 42.6 µg/mL)	1.56 µM (≈ 2.66 µg/mL)	1.56 µM (≈ 2.66 µg/mL)	69%	23%	0%	0%	3%	4%	59%	18%	0%	11%	5%	7%	6%	50%	16%	9%	17%	HaCaT cell viability ([2]; 2 h treatment, 25 μM, mean of three independent experiments): 60–70%; HaCaT cell viability ([2]; 2 h treatment, 50 μM, mean of three independent experiments): less than 40%; HaCaT cell viability ([2]; 24 h treatment (sentence continues from 50 μM)): less than 20%; helix percentage (total) in SDS solution ([3]; CD in SDS micelles (20 mM), DichroWeb, regular plus distorted helix): about 80%; helix-1 (regular α-helix) [3, 7]: 1%; helicity (circular dichroism): 7%; MIC A. baumannii ATCC 19606 (A. baumannii ATCC 19606): 3.12 µM (≈ 5.32 µg/mL); MIC S. aureus ATCC 25923 (S. aureus ATCC 25923): 3.12 µM (≈ 5.32 µg/mL); MIC P. aeruginosa ATCC 27853 (P. aeruginosa ATCC 27853): >100 µM
CC[C@H](C)[C@H](NC(=O)[C@H](CCCNC(=N)N)NC(=O)[C@]1(C)CCCC=CCCC[C@](C)(NC(=O)[C@H](Cc2ccccc2)NC(=O)[C@H](Cc2c[nH]c3ccccc23)NC(=O)[C@@H]2CCCN2C(=O)[C@@H](NC(=O)[C@@H](N)Cc2ccccc2)C(C)C)C(=O)N[C@@H](CCCCN)C(=O)N[C@@H](Cc2ccccc2)C(=O)N[C@H](CC(C)C)C(=O)N1)C(=O)N[C@@H](CC(C)C)C(N)=O [compound 25]	>100 µM	>100 µM	100 µM (≈ 172 µg/mL)	54%	34%	0%	0%	7%	5%	41%	22%	28%	0%	4%	5%	10%	41%	12%	8%	16%	aggregation in water (shape of CD spectrum) ([3]; CD in water, peptide 50 μM, 25 °C): form α-helical aggregates; helix-1 (regular α-helix) [3, 7]: 13%; helicity (circular dichroism): 23%; MIC A. baumannii ATCC 19606 (A. baumannii ATCC 19606): >100 µM; MIC S. aureus ATCC 25923 (S. aureus ATCC 25923): >100 µM; MIC P. aeruginosa ATCC 27853 (P. aeruginosa ATCC 27853): >100 µM
